# According to PubChem BioAssay (NCI):
#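 Cultured in 96-well plates, cells were exposed to test compound for 48 hours across five concentrations. TGI: total growth inhibition.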
# Experiments:
# Test in all cases: NCI-60 cell line screen, 48 h
# MCF7 breast = system: MCF7 breast
# MDA-N = system: MDA-N
# HOP-92 NSCLC = system: HOP-92 NSCLC
# 786-0 renal = system: 786-0 renal
# U251 CNS = system: U251 CNS
# CCRF-CEM leukemia = system: CCRF-CEM leukemia
# OVCAR-4 ovarian = system: OVCAR-4 ovarian
# SN12C renal = system: SN12C renal
# IGROV1 ovarian = system: IGROV1 ovarian
# SW-620 colon = system: SW-620 colon
# LOX IMVI melanoma = system: LOX IMVI melanoma
# DU-145 prostate = system: DU-145 prostate
# UACC-62 melanoma = system: UACC-62 melanoma
# HS 578T breast = system: HS 578T breast
# A498 renal = system: A498 renal
# K-562 leukemia = system: K-562 leukemia
# SK-MEL-5 melanoma = system: SK-MEL-5 melanoma
# UO-31 renal = system: UO-31 renal
# A549 NSCLC = system: A549 NSCLC
# RPMI-8226 leukemia = system: RPMI-8226 leukemia
# NCI/ADR-RES ovarian = system: NCI/ADR-RES ovarian
# OVCAR-3 ovarian = system: OVCAR-3 ovarian
# HT29 colon = system: HT29 colon
# OVCAR-5 ovarian = system: OVCAR-5 ovarian
# SF-295 CNS = system: SF-295 CNS
# NCI-H226 lung = system: NCI-H226 lung
# UACC-257 melanoma = system: UACC-257 melanoma
# TK-10 renal = system: TK-10 renal
# NCI-H522 lung = system: NCI-H522 lung
# SR leukemia = system: SR leukemia
# HCT-15 colon = system: HCT-15 colon
# EKVX NSCLC = system: EKVX NSCLC
# M14 melanoma = system: M14 melanoma
# MOLT-4 leukemia = system: MOLT-4 leukemia
# RXF 393 renal = system: RXF 393 renal
# SK-MEL-28 melanoma = system: SK-MEL-28 melanoma
# NCI-H23 lung = system: NCI-H23 lung
# PC-3 prostate = system: PC-3 prostate
# HCT-116 colon = system: HCT-116 colon
# SF-539 CNS = system: SF-539 CNS
# CAKI-1 renal = system: CAKI-1 renal
# SNB-19 CNS = system: SNB-19 CNS
# BT-549 breast = system: BT-549 breast
# HOP-62 NSCLC = system: HOP-62 NSCLC
# COLO 205 colon = system: COLO 205 colon
# SF-268 CNS = system: SF-268 CNS
# T-47D breast = system: T-47D breast
# OVCAR-8 ovarian = system: OVCAR-8 ovarian
# HL-60(TB) leukemia = system: HL-60(TB) leukemia
# MDA-MB-435 = system: MDA-MB-435
# NCI-H460 lung = system: NCI-H460 lung
# SK-MEL-2 melanoma = system: SK-MEL-2 melanoma
# SNB-75 CNS = system: SNB-75 CNS
# SK-OV-3 ovarian = system: SK-OV-3 ovarian
# KM12 colon = system: KM12 colon
# MALME-3M melanoma = system: MALME-3M melanoma
# ACHN renal = system: ACHN renal
# MDA-MB-231 breast = system: MDA-MB-231 breast
# HCC-2998 colon = system: HCC-2998 colon
smiles,measurement,setting,value
NC(N)=Nc1nc2ccc([N+](=O)[O-])cc2[nH]1,TGI,MCF7 breast,> 100000 nM
same,TGI,MDA-N,> 100000 nM
same,TGI,HOP-92 NSCLC,> 100000 nM
same,TGI,786-0 renal,> 100000 nM
same,TGI,U251 CNS,> 100000 nM
same,TGI,CCRF-CEM leukemia,> 100000 nM
same,TGI,OVCAR-4 ovarian,> 100000 nM
same,TGI,SN12C renal,> 100000 nM
same,TGI,IGROV1 ovarian,> 100000 nM
same,TGI,SW-620 colon,> 100000 nM
same,TGI,LOX IMVI melanoma,> 100000 nM
same,TGI,DU-145 prostate,> 100000 nM
same,TGI,UACC-62 melanoma,> 100000 nM
same,TGI,HS 578T breast,> 100000 nM
same,TGI,A498 renal,> 100000 nM
same,TGI,K-562 leukemia,> 100000 nM
same,TGI,SK-MEL-5 melanoma,> 100000 nM
same,TGI,UO-31 renal,> 100000 nM
same,TGI,A549 NSCLC,> 100000 nM
same,TGI,RPMI-8226 leukemia,> 100000 nM
same,TGI,NCI/ADR-RES ovarian,> 100000 nM
same,TGI,OVCAR-3 ovarian,> 100000 nM
same,TGI,HT29 colon,> 100000 nM
same,TGI,OVCAR-5 ovarian,> 100000 nM
same,TGI,SF-295 CNS,> 100000 nM
same,TGI,NCI-H226 lung,> 100000 nM
same,TGI,UACC-257 melanoma,> 100000 nM
same,TGI,TK-10 renal,> 100000 nM
same,TGI,NCI-H522 lung,> 100000 nM
same,TGI,SR leukemia,> 100000 nM
same,TGI,HCT-15 colon,> 100000 nM
same,TGI,EKVX NSCLC,> 100000 nM
same,TGI,M14 melanoma,> 100000 nM
same,TGI,MOLT-4 leukemia,> 100000 nM
same,TGI,RXF 393 renal,> 100000 nM
same,TGI,SK-MEL-28 melanoma,> 100000 nM
same,TGI,NCI-H23 lung,> 100000 nM
same,TGI,PC-3 prostate,> 100000 nM
same,TGI,HCT-116 colon,> 100000 nM
same,TGI,SF-539 CNS,> 100000 nM
same,TGI,CAKI-1 renal,> 100000 nM
same,TGI,SNB-19 CNS,> 100000 nM
same,TGI,BT-549 breast,> 100000 nM
same,TGI,HOP-62 NSCLC,> 100000 nM
same,TGI,COLO 205 colon,> 100000 nM
same,TGI,SF-268 CNS,> 100000 nM
same,TGI,T-47D breast,> 100000 nM
same,TGI,OVCAR-8 ovarian,> 100000 nM
same,TGI,HL-60(TB) leukemia,> 100000 nM
same,TGI,MDA-MB-435,> 100000 nM
same,TGI,NCI-H460 lung,> 100000 nM
same,TGI,SK-MEL-2 melanoma,> 100000 nM
same,TGI,SNB-75 CNS,> 100000 nM
same,TGI,SK-OV-3 ovarian,> 100000 nM
same,TGI,KM12 colon,> 100000 nM
same,TGI,MALME-3M melanoma,> 100000 nM
same,TGI,ACHN renal,> 100000 nM
same,TGI,MDA-MB-231 breast,> 100000 nM
CN(C)CCn1c(=O)c2ccc3c4c(nn3CCN(C)C)c3cc([N+](=O)[O-])ccc3n(c1=O)c24,TGI,MCF7 breast,650 nM
same,TGI,MDA-N,243 nM
same,TGI,HCC-2998 colon,207 nM
same,TGI,786-0 renal,277 nM
same,TGI,U251 CNS,2940 nM
same,TGI,CCRF-CEM leukemia,417 nM
same,TGI,OVCAR-4 ovarian,223 nM
same,TGI,SN12C renal,429 nM
same,TGI,IGROV1 ovarian,4500 nM
same,TGI,SW-620 colon,979 nM
same,TGI,LOX IMVI melanoma,1160 nM
same,TGI,DU-145 prostate,1200 nM
same,TGI,UACC-62 melanoma,952 nM
same,TGI,HS 578T breast,2820 nM
same,TGI,A498 renal,1680 nM
same,TGI,SK-MEL-5 melanoma,1980 nM
same,TGI,UO-31 renal,363 nM
same,TGI,A549 NSCLC,1230 nM
same,TGI,RPMI-8226 leukemia,397 nM
same,TGI,NCI/ADR-RES ovarian,701 nM
same,TGI,OVCAR-3 ovarian,2260 nM
same,TGI,OVCAR-5 ovarian,448 nM
same,TGI,SF-295 CNS,1050 nM
same,TGI,NCI-H226 lung,2350 nM
same,TGI,UACC-257 melanoma,1990 nM
same,TGI,TK-10 renal,2010 nM
same,TGI,NCI-H522 lung,200 nM
same,TGI,HCT-15 colon,745 nM
same,TGI,EKVX NSCLC,434 nM
same,TGI,M14 melanoma,1290 nM
same,TGI,RXF 393 renal,434 nM
same,TGI,SK-MEL-28 melanoma,2930 nM
same,TGI,NCI-H23 lung,397 nM
same,TGI,PC-3 prostate,576 nM
same,TGI,HCT-116 colon,325 nM
same,TGI,SF-539 CNS,2830 nM
same,TGI,CAKI-1 renal,275 nM
same,TGI,SNB-19 CNS,1080 nM
same,TGI,BT-549 breast,3340 nM
same,TGI,HOP-62 NSCLC,974 nM
same,TGI,COLO 205 colon,297 nM
same,TGI,SF-268 CNS,942 nM
same,TGI,T-47D breast,10800 nM
same,TGI,OVCAR-8 ovarian,959 nM
same,TGI,HL-60(TB) leukemia,638 nM
same,TGI,MDA-MB-435,219 nM
same,TGI,NCI-H460 lung,176 nM
same,TGI,SK-MEL-2 melanoma,310 nM
same,TGI,SK-OV-3 ovarian,959 nM
same,TGI,KM12 colon,433 nM
same,TGI,MALME-3M melanoma,1120 nM
same,TGI,ACHN renal,975 nM
same,TGI,MDA-MB-231 breast,491 nM
